Reference: patent publication US7635686B2, “Therapeutically useful triethyleneglycol cholesteryl oligonucleotides” (Bioniche Life Sciences, Inc., priority 2001, dated 2009)

What was measured:
Hs578T cells = experiment: Release of nuclear mitotic apparatus protein (NuMA) by Hs578T cells (ELISA); type: cell-based, human; settings: Hs578T monolayer, 53 μM, 72 hrs; percentage increase
Procedure: Hs578T cells were cultured as monolayer in negative control conditions or with 53 μM final concentraition of SEQ ID NO:2, 53 μM of SEQ ID NO:6 for 72 hrs. The release of nuclear mitotic apparatus protein (NuMA) was used as a measure of apoptosis. NuMA was determined using a commercial ELISA kit following the manufacturer's protocol. Results are shown in Table 11 and are expressed as the percentage increase in NuMA release compared to control conditions based on optical density measurements.

MEG-01 cells [1] = experiment: Cell cycle stage in MEG-01 cells (propidium iodide flow cytometry); type: cell-based, human; settings: 24 h
Procedure: To determine a cell cycle stage, various assays and procedures known to one skilled in the art may be employed. One such procedure uses a CYCLETEST™ PLUS DNA commercial kit (Becton Dickinson, Franklin Lakes, N.J.). Briefly, nuclei from cells are obtained by dissolving the cell membrane in a nonionic detergent, eliminating the cell cytoskeleton and nuclear proteins with trypsin, digesting the cellular RNA with RNase, and stabilizing the nuclear chromatin with spermine. Propidium iodide is added to the cell nuclei and their fluorescence was analyzed in a flow cytometer equipped with electronic doublet discrimination capability (FACSCalibur, Becton Dickinson, Franklin Lakes, N.J.). Accumulation of cells in G0/G1, early S (SE), mid S (SM), late S (SL) or G2/M phases of the cell cycle may be analyzed using MODFIT LT software (Verity Software House Inc., Topsham, Mass.), or other appropriate software.
Exponentially growing MEG-01 cells (2×10^5 cells/ml) were incubated for 24 h with 0 μM (control), 53 μM of SEQ ID NO:2 or 53 μM of SEQ ID NO:6. The cells were collected, centrifuged, and cell cycle stage was determined.

HIG-82 cells [2] = experiment: HIG-82 synovial cell proliferation (MTT reduction); type: cell-based, rabbit; settings: 53 μM, 48 hours
Procedure: Adherent HIG-82 cells, a synovial cell line, were incubated at 10×10^5 cells/ml for 48 hours with 53 μM (final concentration) of SEQ ID NO:2, SEQ ID NO:3, SEQ ID NO:4, SEQ ID NO:6, SEQ ID NO:7, or SEQ ID NO:8. Cellular proliferation was measured using dimethylthiazol-diphenyl-tetrazolium (MTT) reduction (Mosman et al., J. Immunol. Methods 65:55, 1983). MTT was measured at a wavelength of 570 nm using a multiple spectrophotometer reader (ELX800, Bio-TEK, Instruments Inc., Winooski, Vt.). The percentage of inhibition, calculated as […]

HIG-82 cells [3] = experiment: Apoptosis by nuclear DNA fragmentation (TUNEL, flow cytometry) in HIG-82 cells; type: cell-based, rabbit; settings: 53 μM
Procedure: Adherent HIG-82 cells were incubated at 1.0×10^5 cells/ml for 48 hours with 53 μM final concentration of SEQ ID NO:1, SEQ ID NO:2, SEQ ID NO:5 or SEQ ID NO:6. Since phosphatidylserine/annexin V detection of apoptosis was not reliable after adherent cell harvesting techniques, such as trypsinization (van Engeland, Cytometry, 31:1, 1998), apoptosis in HIG-82 cells was evaluated using flow cytometry by the detection of fragmented DNA by terminal deoxynucleotidyl transferase enzyme-mediated bromodeoxyuridine triphosphate-biotin nick end-labeling (TUNEL) using a commercial assay (APO-BRDU™ kit; BD Pharmingen). The percentage of cells containing nuclear DNA fragmentation was determined. After 24 hours, untreated HIG-82 cells were essentially negative for nuclear DNA fragmentation.

MEG-01 cells [4] = experiment: Apoptosis by phosphatidylserine redistribution (FITC-annexin V flow cytometry) in MEG-01 cells; type: cell-based, human; settings: 48 hours; for Percentage of positive cells for phosphatidylserine (cells in apoptosis) in MEG-01 cells: untreated cells 12%
Procedure: Redistribution of plasma membrane phosphatidylserine is a characteristic of cells undergoing apoptosis (Martin et al., J. Exp. Med., 182:1545, 1995). The redistribution of phosphatidylserine in the plasma membrane during apoptosis was measured by flow cytometry using FITC (fluorescein isothiocyanate)-conjugated annexin V (BD Pharmingen, San Diego, Calif.). MEG-01 cells, a human chronic myelogeneous leukemia cell line positive for the Philadelphia chromosome and having a BCR-ABL gene fusion, were incubated at 2.5×10^5 cells/ml for 48 hours with 5.3, 26.5 and 53.0 μM final concentrations of SEQ ID NO:1, SEQ ID NO:2, SEQ ID NO:5, SEQ ID NO:6 and cholesteryl-TEG phosphoramidite molecule. The percentage of cells in apoptosis after exposure to the SEQ ID NOs:1, 2, 5, 6, or cholesteryl-TEG phosphoramidite treatment is reported in Table 2. The percentage of apoptosis in untreated MEG-01 cells was 12%.

5′ OH-GGGAGG-OH 3′ (listed as DNA, chemistry not fully specified) [SEQ ID NO:2]
NuMA release compared to control (%) (Hs578T cells): +8% | Induction of cell cycle arrest in MEG-01 cells (in words) (MEG-01 cells [1]; 53 μM): inactive | % of cells in phase SM (MEG-01 cells [1]; MEG-01, 53 μM, untreated 10.8): 11.6% | % of cells in phase SL + G2/M (MEG-01 cells [1]; MEG-01, 53 μM, untreated 17.8): 19.8% | % of cells in phase G0/G1 + SE (MEG-01 cells [1]; MEG-01, 53 μM, untreated 71.4): 68.6% | Inhibition of proliferation of synovial HIG-82 cells (in words) (HIG-82 cells [2]): did not inhibit proliferation | Inhibition of HIG-82 cell proliferation, inhibition (%) (HIG-82 cells [2]; MTT): 6% | Percentage of cells containing DNA fragmentation (cells in apoptosis) in HIG-82 cells (HIG-82 cells [3]; 48 hours, TUNEL): 1% | Induction of apoptosis in HIG-82 cells (in words) (HIG-82 cells [3]; fragmented nuclear DNA): inactive | Percentage of positive cells for phosphatidylserine (cells in apoptosis) in MEG-01 cells (MEG-01 cells [4]; 5.3 μM): 12% | Percentage of positive cells for phosphatidylserine (cells in apoptosis) in MEG-01 cells (MEG-01 cells [4]; 26.5 μM): 12% | Percentage of positive cells for phosphatidylserine (cells in apoptosis) in MEG-01 cells (MEG-01 cells [4]; 53.0 μM): 12% | Induction of apoptosis in MEG-01 cells (in words) (MEG-01 cells [4]; translocation of phosphatidylserine, up to 53.0 μM): inactive
